Test results as given in patent US12630498B2 (Genzyme Corporation, priority 2019, dated 2026).
pEC50: −log10 of the molar value.

Experiments:
[1] = molecular target: T1, CFTR-mediated transepithelial chloride transport in primary human bronchial epithelial cells from a ΔF508 homozygous CF donor (Homo sapiens, UniProt P13569, DEL508-508); assay: TECC24 recording of CFTR-mediated transepithelial chloride transport in CF-HBE cells (AUC fold over DMSO); format: cell-based; details: test agent 10 μM, 48 hours incubation, AUC of forskolin-stimulated IEQ relative to DMSO
T1 construct: Primary human bronchial epithelial cells from a ΔF508 homozygous CF donor; host or cells: primary CF-HBE cells, ΔF508 homozygous donor
How it was run: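 Primary ΔF508/ΔF508 CF-HBE cells on inserts exposed to test agent in IL-13-containing medium for 48 h at 36.5 °C. Current-clamp VT/TEER recording in pH 7.4 HEPES saline with benzamil 10 μM, forskolin 10 μM, then CFTRinh-172 20 μM. AUC of equivalent Cl⁻ current between forskolin and inhibitor, expressed as ratio over vehicle.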

[2] = molecular target: T2, human Cystic Fibrosis Transmembrane Conductance Regulator (CFTR) harboring the ΔF508 mutation (Homo sapiens, UniProt P13569, DEL508-508); assay: H441 cell ΔF508-CFTR-HRP cell surface assay (Emax and EC50); format: cell-based; details: for Emax: NCI-H441, NA = Not active
T2 construct: expressed in transfected cells; host or cells: H441 carcinoma line (G418-selected)
How it was run: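 H441 and 41o- bronchial epithelial cells expressing ΔF508-CFTR with an extracellular-loop-4 HRP tag were treated with a 15-point compound series (24.5–0.001 μM) for two nights, H441 at 27° C, 41o- at 37° C with 0.0005 mg/ml doxycycline. Surface HRP luminescence read; % of maximum VX809 signal and EC50 derived.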

T1 sequence (P13569 with tags, fused parts or gaps DEL508-508): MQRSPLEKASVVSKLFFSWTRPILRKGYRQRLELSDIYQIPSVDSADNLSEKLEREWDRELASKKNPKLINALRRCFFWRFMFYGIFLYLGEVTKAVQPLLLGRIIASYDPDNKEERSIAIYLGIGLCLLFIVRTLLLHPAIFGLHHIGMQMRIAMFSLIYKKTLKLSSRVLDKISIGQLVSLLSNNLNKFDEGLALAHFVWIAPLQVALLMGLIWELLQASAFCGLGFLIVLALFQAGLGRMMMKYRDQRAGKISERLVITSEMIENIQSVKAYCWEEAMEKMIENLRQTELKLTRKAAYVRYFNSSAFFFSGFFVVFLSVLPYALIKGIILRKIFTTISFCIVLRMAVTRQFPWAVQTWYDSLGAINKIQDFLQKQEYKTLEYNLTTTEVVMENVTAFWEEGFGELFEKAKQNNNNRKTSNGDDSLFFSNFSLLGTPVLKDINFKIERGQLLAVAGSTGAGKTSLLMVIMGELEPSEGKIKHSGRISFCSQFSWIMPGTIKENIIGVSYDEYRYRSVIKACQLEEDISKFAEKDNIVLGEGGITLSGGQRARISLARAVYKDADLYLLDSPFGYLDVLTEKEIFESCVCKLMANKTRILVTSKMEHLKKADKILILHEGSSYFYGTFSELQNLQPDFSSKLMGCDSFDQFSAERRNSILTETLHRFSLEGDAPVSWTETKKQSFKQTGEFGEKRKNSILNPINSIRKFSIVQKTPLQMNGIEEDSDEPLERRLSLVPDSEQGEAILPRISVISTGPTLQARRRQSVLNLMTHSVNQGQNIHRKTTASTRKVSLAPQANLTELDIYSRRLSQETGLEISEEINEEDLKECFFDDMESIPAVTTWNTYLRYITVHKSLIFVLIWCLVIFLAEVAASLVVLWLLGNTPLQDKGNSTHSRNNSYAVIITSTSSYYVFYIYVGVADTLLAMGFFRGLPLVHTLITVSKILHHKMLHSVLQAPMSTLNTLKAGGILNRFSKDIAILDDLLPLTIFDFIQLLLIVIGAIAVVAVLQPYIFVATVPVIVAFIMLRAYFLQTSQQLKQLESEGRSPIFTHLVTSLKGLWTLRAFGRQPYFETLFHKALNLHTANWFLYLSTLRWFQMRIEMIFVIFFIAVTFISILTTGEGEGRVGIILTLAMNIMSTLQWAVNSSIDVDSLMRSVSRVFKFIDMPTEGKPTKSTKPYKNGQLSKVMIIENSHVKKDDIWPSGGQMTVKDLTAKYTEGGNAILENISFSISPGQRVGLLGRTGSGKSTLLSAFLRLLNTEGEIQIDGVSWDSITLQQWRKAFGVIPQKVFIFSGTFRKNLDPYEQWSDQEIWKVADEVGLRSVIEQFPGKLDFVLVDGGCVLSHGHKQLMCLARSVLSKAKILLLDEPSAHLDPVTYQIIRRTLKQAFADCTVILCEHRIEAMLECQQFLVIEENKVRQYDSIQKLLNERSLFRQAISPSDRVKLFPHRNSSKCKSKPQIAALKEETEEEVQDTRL
T2 sequence (P13569 with tags, fused parts or gaps DEL508-508): as above

Row | Compound | TECC24 AUC fold over DMSO @10 μM [1] | pEC50 [2] | Emax [2] [%]
1 | CC(C)(C)[C@H](NC(=O)c1ccc2ccc(C(F)F)cc2c1OCc1ccc(OC(F)(F)F)cc1)C(=O)O [Example 245, (2S)-2-[[7-(difluoromethyl)-1-[[4-(trifluoromethoxy)phenyl]methoxy]naphthalene-2-carbonyl]amino]-3,3-dimethyl-butanoic Acid] | A (“A” refers to AUC @10 uM >6) | 7.00 | 284
2 | CCCC(C)(C)[C@H](NC(=O)c1ccc2ccc(C(F)F)cc2c1OCc1ccc(C(F)(F)F)cc1)C(=O)O [Example 246, (2S)-2-[[7-(difluoromethyl)-1-[[4-(trifluoromethyl)phenyl]methoxy]naphthalene-2-carbonyl]amino]-3,3-dimethylhexanoic Acid] | A (“A” refers to AUC @10 uM >6) | 7.00 | 442
3 | CC(C)(C)[C@H](NC(=O)c1ccc2ccc(C#N)cc2c1OCc1ccc(C(F)(F)F)cc1)C(=O)O [Example 248, (2S)-2-[[7-cyano-1-[[4-(trifluoromethyl)phenyl]methoxy]naphthalene-2-carbonyl]amino]-3,3-dimethyl-butanoic Acid] | A (“A” refers to AUC @10 uM >6) | 5.82 | 206
4 | Cc1ccc2ccc(C(=O)N[C@H](C(=O)O)C(C)(C)C)c(OCc3ccc(OC(F)(F)F)cc3)c2c1 [Example 249, (2S)-3,3-dimethyl-2-[[7-methyl-1-[[4-(trifluoromethoxy)phenyl]methoxy]naphthalene-2-carbonyl]amino]butanoic Acid] | A (“A” refers to AUC @10 uM >6) | 6.70 | 305
5 | CCC(C)(C)[C@H](NC(=O)c1ccc2ccc(C(F)F)cc2c1OCc1ccc(OC(F)(F)F)cc1)C(=O)O [Example 250, (2S)-2-[[7-(difluoromethyl)-1-[[4-(trifluoromethoxy)phenyl]methoxy]naphthalene-2-carbonyl]amino]-3,3-dimethyl-pentanoic Acid] | A (“A” refers to AUC @10 uM >6) | 7.00 | 270
6 | CCCC(C)(CC)[C@H](NC(=O)c1ccc2ccc(Cl)cc2c1OCc1ccc(OC(F)(F)F)cc1)C(=O)O (stereo partly drawn) [Example 251, (2S)-2-[[7-chloro-1-[[4-(trifluoromethoxy)phenyl]methoxy]naphthalene-2-carbonyl]amino]-3-ethyl-3-methyl-hexanoic Acid] | A (“A” refers to AUC @10 uM >6) | 7.00 | 267
7 | CCC1([C@H](NC(=O)c2ccc3ccc(Cl)cc3c2OCc2ccc(OC(F)(F)F)cc2)C(=O)O)CCCC1 [Example 253, (2S)-2-[[7-chloro-1-[[4-(trifluoromethoxy)phenyl]methoxy]naphthalene-2-carbonyl]amino]-2-(1-ethylcyclopentyl)acetic Acid] | A (“A” refers to AUC @10 uM >6) | – | 239
8 | CC(C)(C)[C@H](NC(=O)c1ccc2ccc(C#N)cc2c1OCc1ccc(OC(F)(F)F)cc1)C(=O)O [Example 254, (2S)-2-[[7-cyano-1-[[4-(trifluoromethoxy)phenyl]methoxy]naphthalene-2-carbonyl]amino]-3,3-dimethyl-butanoic Acid] | A (“A” refers to AUC @10 uM >6) | 6.15 | 176
9 | CCC(C)(C)[C@H](NC(=O)c1ccc2ccc(C)cc2c1OCCCC(C)(C)C)C(=O)O [Example 257, (2S)-2-[[1-(4,4-dimethylpentoxy)-7-methyl-naphthalene-2-carbonyl]amino]-3,3-dimethyl-pentanoic Acid] | A (“A” refers to AUC @10 uM >6) | 6.22 | 369
10 | CC(C)Oc1ccc2c(OCc3ccc(C(F)(F)F)cc3)c(C(=O)N[C@H](C(=O)O)C(C)(C)C)ccc2c1 [Example 260, (2S)-2-[[6-isopropoxy-1-[[4-(trifluoromethyl)phenyl]methoxy]naphthalene-2-carbonyl]amino]-3,3-dimethyl-butanoic Acid] | C (“C” refers to AUC @10 uM <4) | 5.82 | 70.2
11 | CC(C)(C)[C@@H](NC(=O)c1ccc2ccc(F)cc2c1OCc1ccc(C(F)(F)F)cc1)C(=O)O [Example 261, (2R)-2-[[7-fluoro-1-[[4-(trifluoromethyl)phenyl]methoxy]naphthalene-2-carbonyl]amino]-3,3-dimethyl-butanoic Acid] | A (“A” refers to AUC @10 uM >6) | 6.05 | 68.4
12 | CC(C)(C)[C@@H](NC(=O)c1ccc2ccc(Cl)cc2c1OCc1ccc(C(F)(F)F)cc1)C(=O)O [Example 262, (2R)-2-[[7-chloro-1-[[4-(trifluoromethyl)phenyl]methoxy]naphthalene-2-carbonyl]amino]-3,3-dimethyl-butanoic Acid] | A (“A” refers to AUC @10 uM >6) | 5.96 | 132
13 | Cc1cc(F)c2ccc(C(=O)N[C@H](C(=O)O)C(C)(C)C)c(OCc3ccc(C(F)(F)F)cc3)c2c1 [Example 263, (2S)-2-[[5-fluoro-7-methyl-1-[[4-(trifluoromethyl)phenyl]methoxy]naphthalene-2-carbonyl]amino]-3,3-dimethyl-butanoic Acid] | A (“A” refers to AUC @10 uM >6) | 7.00 | 250
14 | CC(C)(C)[C@@H](NC(=O)c1ccc2ccc(C(F)F)cc2c1OCc1ccc(OC(F)(F)F)cc1)C(=O)O [Example 264, (2R)-2-[[7-(difluoromethyl)-1-[[4-(trifluoromethoxy)phenyl]methoxy]naphthalene-2-carbonyl]amino]-3,3-dimethyl-butanoic Acid] | B (“B” refers to AUC @10 uM between 4-6) | 5.74 | 70.7
15 | CC(C)(C)[C@@H](NC(=O)c1ccc2ccc(C(F)F)cc2c1OCc1ccc(C(F)(F)F)cc1)C(=O)O [Example 265, (2R)-2-[[7-(difluoromethyl)-1-[[4-(trifluoromethyl)phenyl]methoxy]naphthalene-2-carbonyl]amino]-3,3-dimethyl-butanoic Acid] | C (“C” refers to AUC @10 uM <4) | 6.22 | 96.2

The remaining lines, values ahead:

Row | TECC24 AUC fold over DMSO @10 μM [1] | pEC50 [2] | Emax [2] [%] | Compound
16 | A (“A” refers to AUC @10 uM >6) | 7.00 | 365 | CC(C)(C)[C@H](NC(=O)c1ccc2ccc(C(F)F)cc2c1OCc1ccc(C(F)(F)F)cc1)C(=O)O [Example 244, (2S)-2-[[7-(difluoromethyl)-1-[[4-(trifluoromethyl)phenyl]methoxy]naphthalene-2-carbonyl]amino]-3,3-dimethyl-butanoic Acid]
17 | A (“A” refers to AUC @10 uM >6) | 7.00 | 224 | CC(C)(C)[C@H](NC(=O)c1ccc2ccc(Br)cc2c1OCc1ccc(OC(F)(F)F)cc1)C(=O)O [Example 247, (2S)-2-[[7-bromo-1-[[4-(trifluoromethoxy)phenyl]methoxy]naphthalene-2-carbonyl]amino]-3,3-dimethyl-butanoic Acid]
18 | A (“A” refers to AUC @10 uM >6) | 6.22 | 110 | CC(C)(C)[C@H](NC(=O)c1ccc2ccc(-c3cscn3)cc2c1OCc1ccc(OC(F)(F)F)cc1)C(=O)O [Example 252, (2S)-3,3-dimethyl-2-[[7-thiazol-4-yl-1-[[4-(trifluoromethoxy)phenyl]methoxy]naphthalene-2-carbonyl]amino]butanoic Acid]
19 | A (“A” refers to AUC @10 uM >6) | 7.00 | 324 | CCCC(C)(CC)[C@H](NC(=O)c1ccc2ccc(Cl)cc2c1OCc1ccc(C(F)(F)F)cc1)C(=O)O (stereo partly drawn) [Example 255, (2S)-2-[[7-chloro-1-[[4-(trifluoromethyl)phenyl]methoxy]naphthalene-2-carbonyl]amino]-3-ethyl-3-methyl-hexanoic Acid]
20 | A (“A” refers to AUC @10 uM >6) | 7.00 | 296 | CC(C)(C)[C@H](NC(=O)c1ccc2ccc(Br)cc2c1OCc1ccc(C(F)(F)F)cc1)C(=O)O [Example 256, (2S)-2-[[7-bromo-1-[[4-(trifluoromethyl)phenyl]methoxy]naphthalene-2-carbonyl]amino]-3,3-dimethyl-butanoic Acid]
21 | A (“A” refers to AUC @10 uM >6) | – | 264 | CCC1([C@H](NC(=O)c2ccc3ccc(Cl)cc3c2OCc2ccc(C(F)(F)F)cc2)C(=O)O)CCCC1 [Example 258]
22 | A (“A” refers to AUC @10 uM >6) | 5.77 | 63.7 | CC(C)(C)[C@@H](NC(=O)c1ccc2ccc(F)cc2c1OCc1ccc(OC(F)(F)F)cc1)C(=O)O [Example 259, (2R)-2-[[7-fluoro-1-[[4-(trifluoromethoxy)phenyl]methoxy]naphthalene-2-carbonyl]amino]-3,3-dimethyl-butanoic Acid]
23 | A (“A” refers to AUC @10 uM >6) | 6.70 | 195 | CCC(C)(C)[C@H](NC(=O)c1ccc2ccc(F)cc2c1OCc1ccc(C(F)(F)F)cc1)C(=O)O [Example 274, (2S)-2-[[7-fluoro-1-[[4-(trifluoromethyl)phenyl]methoxy]naphthalene-2-carbonyl]amino]-3,3-dimethyl-pentanoic Acid]
